Laboratory results published in US6656888B1, “Biodegradable two-cycle engine oil compositions, grease compositions, and ester base stocks use therein” (Cognis Corporation, priority 1992, dated 2003).

What was measured:
Type in all cases: physicochemical
[1] = Kinematic viscosity, ASTM D-445
Flash Point, ASTM D-92 = experiment: Flash Point, ASTM D-92
Pour Point, ASTM D-97 = experiment: Pour Point, ASTM D-97

trimethylolpropane trioleate [EMERY® 2964]
Viscosity, cSt 40° C. ([1]; 40° C.): 48.43 cSt
Viscosity, cSt 100° C. ([1]; 100° C.): 10.17 cSt
Flash Point, ° C. (Flash Point, ASTM D-92): 312 °C
Pour Point, ° C. (Pour Point, ASTM D-97): −40 °C
